Reference: paper PMC9130233, “An inhibitor of RORγ for chronic pulmonary obstructive disease treatment” (Scientific Reports, 2022)

Assays:
[1] = Single dose intranasal PK study in mice; format: in vivo, mouse
Method: A single dose intranasal PK study of PCCR-1 was conducted in male C57 mice at 20 and 50 µg/animal dose. The formulation was prepared in saline with 0.1% v/v tween-80 as the wetting agent. Animals were anesthetized briefly using gaseous isoflurane and oxygen mixture and a 40 µL of the formulation was instilled into both the nostrils (20 µL each) once the animal reached a regular breathing pattern and at pre-determined time points (0.25 h, 0.5 h, 1 h, 2 h, 4 h, 8 h and 24 h), approximately 0.3 mL of blood samples were collected using retro-orbital puncture in suitable anticoagulant (K3 EDTA). The animals were immediately sacrificed and lung was isolated. Blood samples were centrifuged (3000 rpm, 5 min) and plasma was harvested. Lung samples were homogenized in PBS buffer (pH 7.4) and centrifuged to collect the supernatant. Both plasma and lung samples were extracted using methyl t-butyl ether, mixed and centrifuged. The supernatant samples obtained after centrifugation were dried and reconstituted with acetonitrile-ammonium acetate buffer (90:10). The samples were mixed and analyzed in LCMS/MS for the analyte concentrations. Concentration vs time values were subjected to non-compartmental analysis using Phoenix WinNonlin® (Version 6.4) to estimate the appropriate pharmacokinetics parameters.

[2] = system: IL-17A release in mouse splenocytes; experiment: IL-17A release, mouse splenocytes, anti-CD3 + anti-CD28; format: cell-based; settings: Splenocyte, anti-CD3 + anti-CD28, n = 13, read-out: Cellular activity: Mouse IC50, IL-17A release
Method: Inhibition of RORγ by PCCR-1 was also estimated in a functional assay by measuring the inhibition of Th17 dependent cytokine IL-17A release in human peripheral blood mononuclear cells (PBMCs), mouse splenocytes and canine PBMC stimulated with their respective anti-CD3 and anti-CD28 antibodies.
Splenocytes were prepared from 6–8 week old BALB/c mice and cells were seeded in 96-well plates coated with mouse anti-CD3 mAb (10 µg/mL). Cells were treated with test compounds for 30 min followed by stimulation with mouse anti- CD28 mAb (3 µg/mL) for 72 h at 37 °C in 5% CO2 incubator. The supernatant was used for estimating mouse IL-17 by ELISA.

FXR = system: T1, FXR; experiment: TR-FRET selectivity binding assay, FXR
T1 construct: purchased Invitrogen
Text: (§1) Based on the homology of the ligand binding domains, 3 different isoforms of ROR (hRORα, hRORβ and hRORγ) are reported. Small variations in the LBD regions possibly lead to differences in competitive binding between the nuclear receptors of the ROR isoforms (Fig. 1b). Similar to the assessment of RORγ binding assay, TR-FRET binding assays were also used to assess the affinity of PCCR-1 for other ROR isoforms. […] This was reconfirmed in cellular functional assays for the selected isoforms and nuclear receptors using Gal4 DBD with luciferase reporter system from Indigo (PA, USA). […] In addition, both cellular agonist and antagonist effects as well as for enzyme activity were evaluated with a known reference compound for each target, using a radiolabeled method (Eurofins Cerep, France, Table 1).
(§2) For selectivity, the ROR isoforms RORα, FXR, LXRα, LXRβ, RXR, RARα were incubated with compound for 60 min at 22 °C followed by detection mix containing respective agonist (All trans retinoic acid for RARα, T0901317 for LXRα, LXRβ, 9-cis Retinoic acid for RXR, GW-4064 for FXR) and coactivator peptide (FD22 for RORα, PGC1α for RXR, RARα, TRAP220 for LXRα, LXRβ, SRC2-2 for FXR) and Tb-anti GST antibody prepared in assay buffer were added into a 384-well white plate. Reading taken after overnight incubation and the data analysis done as per the protocol mentioned in RORγt-LBD and co-activator ligand binding assay.

NK3 = system: T2, NK3; experiment: Cerep panel, NK3
T2 construct: Eurofins Cerep
Text: as §1

[3] = system: IL-17A release in human PBMC; experiment: IL-17A release, human PBMC under Th17 polarization conditions; format: cell-based; settings: human PBMC under Th17 polarization condition, n = 2; read-out: hIL-17 (IL-17A) IC50
Method: An increase in the levels of Th17 dependent cytokine in the peripheral blood of COPD patients as compared to the Th1 and Th2 dependent cytokines has been well documented in a subset of COPD patients. A comparative study was performed under TCR activating conditions to evaluate the potencies of PCCR-1 for inhibition across Th1, Th2 and Th17 dependent cytokines using hPBMCs.
Human whole blood from healthy subjects were procured from Clinical Research Unit, Sanpada. Clinical Research Center Glenmark (Plot No. D, 508, Turbhe, TTC Industrial Area, MIDC, Sanpada, Navi Mumbai, Maharashtra 400705, India). PBMCs were isolated using heparinized blood with Ficoll Histopaque. Briefly, the cells were seeded in 96-well plate pre-coated with human anti-CD3 mAb (10 µg/mL), post 30 min of compound treatment cells were stimulated with human anti-CD28 mAb (2 µg/mL). After 72 h of culture, the supernatant was collected for Th1/Th2 cytokines; IFN-γ, IL-2, IL-4 and IL-10 and measured by ELISA. For Th17 polarization assay, the following cytokine cocktail was used: IL-1β (10 ng/ml), IL-23(10 ng/ml), IL-6 (50 ng/ml), TGF-β1 (3 ng/ml), IL-2 (20U/ml) and supernatants were used for measuring IL-17 and IL-22 by ELISA.

[4] = system: RORγt and IL-17A mRNA in human PBMC; experiment: RT-PCR mRNA expression in TCR stimulated human PBMC; format: cell-based; settings: PCCR-1 treated PBMCs, healthy subjects
Method: For RT-PCR from human PBMC, 5X 10^6 PBMCs were seeded in 6well pre-coated human anti-CD3 mAb (10 µg/mL) plate, post 30 min of compound treatment cells were stimulated with human anti-CD28 mAb (2 µg/mL). After 48 h cells were pelleted, washed with PBS and total RNA was extracted using TRI reagent. 3 µg of DNase treated RNA was reverse transcribed using iScript select cDNA synthesis kit (Biorad Hercules, CA, USA) to produce single-stranded cDNA. RT-PCR was performed with an real-time thermal cycler Eppendorf Mastercycler Ep (Eppendorf AG, Hamburg, Germany) using iTaq SYBR Green Supermix with ROX kit (Biorad Hercules, CA, USA) with human IL-17A specific primers: 5’- […]-3’(sense primer) and 5'-[…]-3' (antisense primer) and human RORγt specific primers: 5’-[…]-3’ (sense primer) and 5’-[…]-3’ (antisense primer). RT-PCR reaction was carried out for 40 cycles at 95 °C for 15 s, 60 °C for 15 s and 60 °C for 40 s. Data was interpreted using 2(-∆CT) Livak method of analysis.

LXRβ = system: T3, LXRβ; experiment: TR-FRET selectivity binding assay, LXRβ
T3 construct: purchased Invitrogen
Text: as §1, §2

RORα = RORα (Homo sapiens, UniProt P35398); experiment: Transactivation assay, Gal4 DBD luciferase reporter (Indigo); format: cell-based
RORα, sequence (P35398 272-523 limits assumed): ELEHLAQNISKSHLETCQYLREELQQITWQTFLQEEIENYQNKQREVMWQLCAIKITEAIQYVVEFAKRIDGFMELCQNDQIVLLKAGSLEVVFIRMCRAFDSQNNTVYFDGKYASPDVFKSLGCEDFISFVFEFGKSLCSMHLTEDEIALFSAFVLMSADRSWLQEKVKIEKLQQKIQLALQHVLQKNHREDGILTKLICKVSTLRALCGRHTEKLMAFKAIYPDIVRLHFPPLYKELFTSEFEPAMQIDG
Text: as §1

CCn1c(C(C)(C)Oc2ccc(F)cc2F)nc2cc(NC(=O)Cc3ccc(S(=O)(=O)CC)cc3)ccc21 [PCCR-1]
quantifiable levels in lungs, time post dose [1]: up to 24 h | mean lung to plasma AUClast ratio ([1]; both doses (20 and 50 µg)): > 1000 | time of peak lung concentrations post dose ([1]; both doses (20 and 50 µg)): 2 to 4 h | Kp ([1]; male, C57, mouse, lung/plasma, inhaled or intranasal, 50 ug, both doses (20 and 50 µg), read-out: mean lung to plasma Cmax ratio): > 1000 | IC50 [2]: 0.766 µM | % Inhibition FXR (FXR; 1 µM): 21.45% | % Inhibition FXR (FXR; 10 µM): 19.81% | Fold over hRORγ, FXR (FXR; vs RORg IC50 31.87 nM): > 313.7 fold | % inhibition at 10 µM NK3 (NK3): 56% | IC50 [3]: 0.0665 µM | IL-17A mRNA expression [4]: significantly inhibited | RORγt mRNA expression [4]: downregulation | % Inhibition LXRβ (LXRβ; 1 µM): 28.11% | % Inhibition LXRβ (LXRβ; 10 µM): 46.66% | Fold over hRORγ, LXRβ (LXRβ; vs RORg IC50 31.87 nM): > 313.7 fold | effect in transactivation assays for RORα inhibition (RORα): no effect
